Measured values taken from US20190018003A1, “TUMOR DISCRIMINATION METHOD, DIAGNOSTIC AGENT FOR TUMOR, AND SENSITIZER FOR TUMOR DIAGNOSIS” (TOTO LTD., priority 2017, published 2019).

Tests used:
[1] = system: WI-38 immortalized normal cells; assay: Discrimination test, fluorescence in WI-38 immortalized normal cells after ALA and particles (separate plates); type: cell-based, human; conditions: Example 10; WI-38 cell line; ALA 2 mmol/l, particles 0.001 w/v %
Procedure: Immortalized cell line WI-38 cells (WI-38 VA13 sub 2 RA, JCRB9057) of normal diploid fibroblast cell line WI-38 were prepared. This cell line was subcultured in an MEM medium (MEM, GlutaMAX™ supplement (Thermo Fisher Scientific), 10 v/v % FBS (Thermo Fischer Scientific)). The cultured cells which reached a logarithmic growth phase 3 days or 4 days later were peeled off with Trypsin/EDTA (Thermo Fisher Scientific) and, after the reaction was terminated in an MEM medium, centrifuged. The cell pellet obtained was suspended in an MEM medium. The cell suspension was subjected to measurement of cell density, inoculated onto a 6-well plate at a density of 5.0×10^4 cells/2 ml/well, and cultured for 3 days.
An aqueous ALA solution (50 mmol/l) was mixed into an MEM medium (MEM, GlutaMAX™ supplement (Thermo Fisher Scientific)) to form a 2 mmol/l ALA solution. Further, an aqueous solution of light scattering particles (2) (ii) was mixed into an MEM medium to form a 0.001 w/v % light scattering particle solution.
The media of the T24 cells and the WI-38 cells on 6-well plates, obtained in Example 3, were respectively removed by an aspirator, and detection was performed in the same manner as in Example 4, and relative fluorescence intensities were calculated.

[2] = system: UM-UC-3 urinary bladder cancer cells; assay: Fluorescence enhancement in UM-UC-3 cells detected by optical spectral detector (635 nm); type: cell-based, human; conditions: Example 17, ALA 2 mmol/l, particles 0.001 w/v %, 405 nm excitation, 635 nm detection, immediately after light irradiation
From the text: An aqueous ALA solution (50 mmol/l) was mixed into an E-MEM medium (ATCC-formulated Eagle's Minimum Essential Medium (ATCC)) to form a 2 mmol/l ALA solution. Further, aqueous solutions of light scattering particles (2) (ii) and 3 (ii) were mixed into an E-MEM medium to respectively form a light scattering particle solution having a concentration of 0.001 w/v %.
The medium of the UM-UC-3 cells on a 6-well plate, obtained in Example 3, was removed by an aspirator, and evaluation thereof was performed under the same conditions as in Example 5 and the solution was used for detection.
Detection was performed by using an optical spectral detector (USB 2000, a small sized fiber optical spectroscope, Ocean Optics) at room temperature in a dark place. […] Fluorescence generated therefrom was passed through a collimate lens disposed on the upper surface in a 50° direction, the collimate lens having a focal distance of 10.9 mm and a numerical aperture of 0.25 (F220SMA-A, Thorlabs) and, further, through an optical fiber (M59L01, Thorlabs) of φ=1 mm and a numerical aperture of 0.5, and was detected by the above optical spectral detector. […] And, by obtaining a difference in each measurement sample by subtracting the background intensity value from an intensity value of the measurement sample at a wavelength of 635 nm, the fluorescence detection intensity was calculated. […]

With `NCC(=O)CCC(=O)O` [fluorescent dye, 5-aminolevulinic acid] the Relative fluorescence intensity [1] was 0.7 and the “Relative detected fluorescence intensity” value [2] was 1.0.
